In patent US8841413B2, “Antidiabetic compounds” (Cadila Healthcare Limited, priority 2006, dated 2014):
Read-outs that look alike come from different tables or passages of the source.

Experiments:
Human GLP-1 receptor = target: T1, Human GLP-1 receptor (Homo sapiens, UniProt P43220); assay type: cell-based; conditions: for activity in human GLP-1 receptor assay (in words): in vitro, dipeptides, FIG. 3
T1 construct: The full-length cDNA was cloned in pcDNA3.1(+); expressed in transfected cells
Method: The novel peptidomimetics were screened for Human GLP-1 receptor (HGLP-1 R) agonist activity (in vitro), using the cAMP cell-based assay, in stably transfected CHO/human GLP1R cells. […] CHO cells were grown in Ham's F12 medium containing L-Glutamine (2 mM), HEPES (25 mM), NaHCO3 (1.1 g/L) and supplemented with NewBorn Calf Serum (NBCS; 10%), Penicillin (50 U/ml (v/v)) and Streptomycin (50 ug/ml (v/v)). Cells were split every 3 days 1:8.
The cDNA encoding the human GLP-1 receptor was isolated by RT-PCR according to standard protocol. The full-length cDNA was cloned in pcDNA3.1(+). […] Clones expressing the receptor were generated by G418 (800 μg/ml active, Sigma) selection. The stable clones were thereafter maintained at 500 ug/ml (G418). The selected clone was used between passages 9-25 for cAMP assays.
The trypsin was inactivated using Ham's F12 medium containing 10% NBCS and the cells were suspended in 2 ml of complete medium. […] The medium was aspirated off from the 12 well plate and the cells were washed once using Ham's F12 (plain). […] The cells were incubated with the test compounds for 30 min in humidified atmosphere and 37° C. After the incubation, the medium was removed and cells were washed once with plain Ham's F12. Subsequently, the cells were lysed by adding 500 ul of ice cold 0.1 N HCl to each well and shaking for 30 minutes at 200 rpm. […] The total cAMP was estimated from the sample according to the manufacturer's protocol using Cyclic AMP immunoassay kit (R&D systems, Minneapolis. MN). The remaining supernatant is used to determine the protein concentration using micro BCA (Sigma). Data is calculated as percent of control (Vehicle: water) and expressed as Mean±SD.

human glucagon receptor = target: T2, human glucagon receptor (Homo sapiens, UniProt P47871); experiment: In vitro human glucagon antagonist activity (inhibition of cAMP production), CHO/human glucagon R cells; assay type: cell-based; conditions: in vitro, FIG. 3 / FIG. 4
T2 construct: The full-length cDNA was cloned in pcDNA3.1(Invitrogen); expressed in transfected cells
T2 sequence (P47871 26-477): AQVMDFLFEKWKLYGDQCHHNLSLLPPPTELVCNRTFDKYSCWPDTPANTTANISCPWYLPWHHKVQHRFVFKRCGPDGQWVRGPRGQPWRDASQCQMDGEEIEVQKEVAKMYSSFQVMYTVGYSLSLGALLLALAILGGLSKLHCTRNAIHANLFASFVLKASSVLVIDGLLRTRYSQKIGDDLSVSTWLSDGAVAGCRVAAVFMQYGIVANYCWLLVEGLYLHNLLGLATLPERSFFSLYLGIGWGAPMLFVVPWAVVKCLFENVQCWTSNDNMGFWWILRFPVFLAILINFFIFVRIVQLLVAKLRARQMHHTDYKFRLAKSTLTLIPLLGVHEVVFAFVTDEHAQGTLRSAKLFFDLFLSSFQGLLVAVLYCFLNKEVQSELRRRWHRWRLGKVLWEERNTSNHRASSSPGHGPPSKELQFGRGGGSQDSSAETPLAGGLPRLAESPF
Method: CHO cells were grown in Ham's F12 medium containing L-Glutamine (2 mM), HEPES (25 mM), NaHCO3 (1.1 g/L) and supplemented with newborn Calf Serum (NBCS; 10%), Penicillin (50 U/ml (v/v)) and Streptomycin (50 ug/ml (v/v)). Cells were split every 3 days 1:8.
The full-length cDNA was cloned in pcDNA3.1(Invitrogen). […] Clones expressing the receptor were generated by G418 (800 μg/ml active, Sigma) selection. The stable clones were thereafter maintained at 500 ug/ml (G418). The selected clone was used between passages 9-25 for cAMP assays.
The trypsin was inactivated using Ham's F12 medium containing 10% NBCS and the cells were suspended in 2 ml of complete medium. […] The medium was aspirated off from the 12 well plate and the cells were washed once using Ham's F12 (plain). […] After the incubation; the medium was removed and cells were washed once with plain Ham's F12. Subsequently, the cells were lysed by adding 500 ul of ice cold 0.1 N HCl to each well and shaking for 30 minutes at 200 rpm. The cells were then scrapped, the lysate was collected in micro centrifuge tubes and centrifuged at 12000 rpm for 10 min to remove the debris. 300 ul of supernatant from each micro-centrifuge tube was then removed into a glass tube and dried under N2 for 30 min, for cAMP estimation. The total cAMP was estimated from the sample according to the manufacturer's protocol using Cyclic AMP immunoassay kit (R&D systems, Minneapolis: MN). The remaining supernatant is used to determine the protein concentration using micro BCA (Sigma). Data is calculated as percent of control (Vehicle: water) and expressed as Mean+SD.

[1] = Stability in human plasma; assay type: in vitro ADME; conditions: 2 μM, 37° C.; for half-life: human, plasma, read-out: half-life (t1/2) in human plasma
Method: (§1) Reactions were terminated by the addition of TFA/H2O (15 mL, 10% (v/v)). […] The column was equilibrated with TFA/H2O, at a flow rate of 1 mL/min. […] The absorbance was monitored at 206 nm using UV detector and peaks were collected manually prior to ESI-MS analysis.

DPP IV = DPP IV (Homo sapiens, UniProt P27487); experiment: Stability against DPP IV enzyme; assay type: in vitro ADME; conditions: 2 μM, 37° C.; for half-life: read-out: half-life (t1/2) with DPP-IV enzyme
Sequence of DPP IV (P27487 whole entry, species assumed): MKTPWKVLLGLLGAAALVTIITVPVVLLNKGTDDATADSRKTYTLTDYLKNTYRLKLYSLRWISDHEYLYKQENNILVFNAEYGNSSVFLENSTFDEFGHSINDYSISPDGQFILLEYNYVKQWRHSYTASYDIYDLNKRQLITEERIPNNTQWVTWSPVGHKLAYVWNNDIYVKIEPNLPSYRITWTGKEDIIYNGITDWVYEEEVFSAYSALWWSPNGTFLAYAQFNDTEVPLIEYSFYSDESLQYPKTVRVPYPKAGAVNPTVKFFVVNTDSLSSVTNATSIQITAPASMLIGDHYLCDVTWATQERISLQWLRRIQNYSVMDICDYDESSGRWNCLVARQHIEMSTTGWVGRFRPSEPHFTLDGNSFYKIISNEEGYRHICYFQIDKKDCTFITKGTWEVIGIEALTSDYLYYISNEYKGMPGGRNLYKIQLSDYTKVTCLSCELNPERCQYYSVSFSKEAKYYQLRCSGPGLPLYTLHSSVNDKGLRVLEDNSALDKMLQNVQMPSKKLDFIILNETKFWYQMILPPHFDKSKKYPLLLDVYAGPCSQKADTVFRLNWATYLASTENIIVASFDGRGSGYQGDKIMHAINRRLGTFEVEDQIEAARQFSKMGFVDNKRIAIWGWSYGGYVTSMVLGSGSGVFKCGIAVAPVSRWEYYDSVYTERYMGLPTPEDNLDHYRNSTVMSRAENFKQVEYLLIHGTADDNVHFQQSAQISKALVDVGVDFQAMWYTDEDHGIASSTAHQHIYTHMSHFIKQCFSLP
Method: as §1

[2] = Stability against liver microsomes; assay type: in vitro ADME, human; conditions: 2 μM, 37° C.
Method: as §1

[3] = Stability in simulated intestinal fluid; assay type: in vitro ADME; conditions: 2 μM, 37° C., pH 7.5; for half-life: simulated gi fluid, read-out: half-life (t1/2) in simulated intestinal fluid
Method: as §1

[4] = Stability in simulated gastric fluid; assay type: in vitro ADME; conditions: 2 μM, 37° C., pH 1.5, pepsin; for half-life: simulated gi fluid, read-out: half-life (t1/2) in simulated gastric fluid
Method: as §1

C57BL/6J mice = experiment: Acute single dose 120-min time-course experiment, in vivo glucose reduction in C57BL/6J mice; parameters: unit not given here; conditions: male C57BL/6J mice, Mean ± SEM
Method: All the animal experiments were carried out according to the internationally valid guidelines following approval by the ‘Zydus Research Center animal ethical committee’. […] Two days prior to the study, the animals were randomised and divided into 5 groups (n=6), based upon their fed glucose levels. On the day of experiment, food was withdrawn from all the cages, water was given ad-libitum and were kept for overnight fasting. Vehicle (normal saline)/test/standard compounds were administered intraperitoneally (i.p.) or orally, on a body weight basis. […] Blood samples were centrifuged and the separated serum was immediately subjected for the glucose estimation. Serum for insulin estimation was stored at −70° C. until used for the insulin estimation. The glucose estimation was carried out with DPEC-GOD/POD method (Ranbaxy Fine Chemicals Limited, Diagnostic division, India), using Spectramax-190, in 96-microwell plate reader (Molecular devices Corporation, Sunnyvale, Calif.). […] The AUC and BCAUC obtained from graphs were analyzed for one way ANOVA, followed by Dunnett's post test, using Graph Pad prism software. Furthermore, the insulin estimation was carried out using rat/mouse insulin ELISA kit (Linco research, Mo. USA).

T1 sequence (P43220 24-463): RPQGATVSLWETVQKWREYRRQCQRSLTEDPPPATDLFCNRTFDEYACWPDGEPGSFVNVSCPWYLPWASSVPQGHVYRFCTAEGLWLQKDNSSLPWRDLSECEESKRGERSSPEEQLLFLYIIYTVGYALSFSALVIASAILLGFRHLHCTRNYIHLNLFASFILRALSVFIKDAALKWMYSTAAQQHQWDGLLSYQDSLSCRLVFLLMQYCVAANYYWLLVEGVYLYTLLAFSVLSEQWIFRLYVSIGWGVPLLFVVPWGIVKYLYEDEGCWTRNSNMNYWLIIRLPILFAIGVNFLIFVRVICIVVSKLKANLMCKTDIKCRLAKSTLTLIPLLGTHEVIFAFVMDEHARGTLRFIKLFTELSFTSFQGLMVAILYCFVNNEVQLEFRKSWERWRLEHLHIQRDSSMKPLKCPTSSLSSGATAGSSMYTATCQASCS

Row | Compound | activity in human GLP-1 receptor assay (in words) (Human GLP-1 receptor) | activity in human Glucagon receptor assay (in words) (human glucagon receptor) | blood glucose level (C57BL/6J mice; 10 nM/kg, i.p, 0 min) | blood glucose level (C57BL/6J mice; 10 nM/kg, i.p, 30 min) | blood glucose level (C57BL/6J mice; 10 nM/kg, i.p, 60 min) | blood glucose level (C57BL/6J mice; 10 nM/kg, i.p, 120 min) | blood glucose level (C57BL/6J mice; 2 μM/kg, oral, 0 min) | blood glucose level (C57BL/6J mice; 2 μM/kg, oral, 30 min) | blood glucose level (C57BL/6J mice; 2 μM/kg, oral, 60 min) | blood glucose level (C57BL/6J mice; 2 μM/kg, oral, 120 min) | further results
1 | Bip(OMe)-Bip(2CF3) | antagonistic activity | antagonistic activity | – | – | – | – | – | – | – | – | –
2 | CCc1cc(OC)ccc1-c1ccc(CC(NC(=O)[C@H](CC(=O)O)NC(=O)[C@H](CO)NC(=O)[C@@H](NC(=O)C(C)(Cc2ccccc2F)NC(=O)[C@@H](NC(=O)CNC(=O)[C@H](CCC(N)=O)NC(=O)C2(NC(=O)[C@@H](N)Cc3c[nH]cn3)CC2)[C@@H](C)O)[C@@H](C)O)C(=O)NC(Cc2ccc(-c3ccccc3F)cc2)C(N)=O)cc1 (single isomer, unassigned) [compound 35] | – | – | – | – | – | – | – | – | – | – | % degradation in 24 h when incubated with human plasma [1]: 00%; half-life [1]: > 24 h; % degradation in 24 h when incubated with DPP-IV enzyme (DPP IV): 00%; half-life (DPP IV): > 24 h; half-life (t1/2) with liver microsomes [2]: (5) h; % degradation in 24 h when incubated with liver microsomes [2]: 26%; % degradation in 24 h when incubated with simulated intestinal fluid [3]: 00%; half-life [3]: > 24 h; Human GLP-1 R activity (cAMP release), % activity with respect to control (Human GLP-1 receptor; 1 nM test compound): 99 ± 0.02%; Human GLP-1 R activity (cAMP release), % activity with respect to control (Human GLP-1 receptor; 10 nM test compound): 99 ± 0.26%; Human GLP-1 R activity (cAMP release), % activity with respect to control (Human GLP-1 receptor; 100 nM test compound): 99 ± 0.31%; Human GLP-1 R activity (cAMP release), % activity with respect to control (Human GLP-1 receptor; 1 μM test compound): 99 ± 0.60%; Human GLP-1 R activity (cAMP release), % activity with respect to control (Human GLP-1 receptor; 10 μM test compound): 99 ± 0.08%; % degradation in 24 h when incubated with simulated gastric fluid [4]: 00%; half-life [4]: > 24 h
3 | Bip(OMe)-Bip(Pyr) | antagonistic activity | antagonistic activity | – | – | – | – | – | – | – | – | –
4 | CCc1cc(OC)ccc1-c1ccc(CC(NC(=O)[C@H](CC(=O)O)NC(=O)[C@H](CO)NC(=O)[C@@H](NC(=O)C(C)(Cc2ccccc2F)NC(=O)[C@@H](NC(=O)CNC(=O)[C@H](CCC(N)=O)NC(=O)C(C)(C)NC(=O)[C@@H](N)Cc2c[nH]cn2)[C@@H](C)O)[C@@H](C)O)C(=O)NC(Cc2ccc(-c3ccccc3F)cc2)C(N)=O)cc1 (single isomer, unassigned) [compound 31] | – | – | – | – | – | – | – | – | – | – | % degradation in 24 h when incubated with human plasma [1]: 00%; half-life [1]: > 24 h; % degradation in 24 h when incubated with DPP-IV enzyme (DPP IV): 00%; half-life (DPP IV): > 24 h; half-life (t1/2) with liver microsomes [2]: (5) h; % degradation in 24 h when incubated with liver microsomes [2]: 31%; % degradation in 24 h when incubated with simulated intestinal fluid [3]: 00%; half-life [3]: > 24 h; Human GLP-1 R activity (cAMP release), % activity with respect to control (Human GLP-1 receptor; 1 nM test compound): 93 ± 0.10%; Human GLP-1 R activity (cAMP release), % activity with respect to control (Human GLP-1 receptor; 10 nM test compound): 99 ± 0.46%; Human GLP-1 R activity (cAMP release), % activity with respect to control (Human GLP-1 receptor; 100 nM test compound): 99 ± 0.41%; Human GLP-1 R activity (cAMP release), % activity with respect to control (Human GLP-1 receptor; 1 μM test compound): 99 ± 0.66%; Human GLP-1 R activity (cAMP release), % activity with respect to control (Human GLP-1 receptor; 10 μM test compound): 99 ± 0.03%; % degradation in 24 h when incubated with simulated gastric fluid [4]: 00%; half-life [4]: > 24 h
5 | Bip(OMe)-Bip(2F) | antagonistic activity | antagonistic activity | – | – | – | – | – | – | – | – | –
6 | Bip(OMe)-Bip(2Me) | antagonistic activity | antagonistic activity | – | – | – | – | – | – | – | – | –
7 | CCc1cc(OC)ccc1-c1ccc(CC(NC(=O)[C@H](CC(=O)O)NC(=O)[C@H](CO)NC(=O)[C@@H](NC(=O)C(C)(Cc2ccccc2F)NC(=O)[C@@H](NC(=O)CNC(=O)[C@H](CCC(N)=O)NC(=O)C2(NC(=O)[C@@H](N)Cc3c[nH]cn3)CC2)[C@@H](C)O)[C@@H](C)O)C(=O)NC(Cc2ccc(-c3ccccc3C)nc2)C(N)=O)cc1 (single isomer, unassigned) [Seq. ID. No. 34, H-(ACP)-QGT-(α-Me-2F-Phe)-TSD-Bip(OMe)-Bip(Pyr)] | – | – | 180 ± 4.2 | 113 ± 3.2 | 112 ± 2.4 | 110 ± 1.9 | 184 ± 2.2 | 118 ± 3.3 | 112 ± 4.4 | 110 ± 2.9 | –
8 | CCc1cc(OC)ccc1-c1ccc(CC(NC(=O)[C@H](CC(=O)O)NC(=O)[C@H](CO)NC(=O)[C@@H](NC(=O)C(C)(Cc2ccccc2F)NC(=O)[C@@H](NC(=O)CNC(=O)[C@H](CCC(N)=O)NC(=O)C2(NC(=O)[C@@H](N)Cc3c[nH]cn3)CC2)[C@@H](C)O)[C@@H](C)O)C(=O)NC(Cc2ccc(-c3ccccc3C(F)(F)F)cc2)C(N)=O)cc1 (single isomer, unassigned) [Seq. ID. No. 36, H-(ACP)-QGT-(α-Me-2F-Phe)-TSD-Bip(OMe)-Bip(2CF3)] | – | – | 180 ± 2.8 | 110 ± 3.6 | 112 ± 2.3 | 112 ± 1.6 | 183 ± 2.3 | 119 ± 3.0 | 112 ± 4.3 | 109 ± 2.6 | –
9 | CCc1cc(OC)ccc1-c1ccc(CC(NC(=O)[C@H](CC(=O)O)NC(=O)[C@H](CO)NC(=O)[C@@H](NC(=O)C(C)(Cc2ccccc2F)NC(=O)[C@@H](NC(=O)CNC(=O)[C@H](CCC(N)=O)NC(=O)C2(NC(=O)[C@@H](N)Cc3c[nH]cn3)CC2)[C@@H](C)O)[C@@H](C)O)C(=O)NC(Cc2ccc(-c3ccccc3F)cc2)C(N)=O)cc1 (single isomer, unassigned) [Seq. ID. No. 35, H-(ACP)-QGT-(α-Me-2F-Phe)-TSD-Bip(OMe)-Bip(2F)] | – | – | 182 ± 4.1 | 112 ± 3.1 | 113 ± 2.6 | 111 ± 1.8 | 183 ± 2.1 | 118 ± 3.4 | 113 ± 4.6 | 111 ± 2.8 | –
